In PubChem BioAssay AID720588 (Broad Institute, 2013):
Active and inactive are the calls of the source.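 Rule for the calls: active = fitted curve falls past a set limit of signal loss at no more than twice the top dose; inconclusive = flat fit between 30 and 70% signal loss, or poor fit; inactive = signal rise, flat within 30%, or crossing too high.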

Test: HEK293T cell cytotoxicity, dose response, cytotoxicity control, CellTiter-Glo luminescence, cherry-pick, set 3 (AID 720588)
Settings: HEK293T viability, CellTiter-Glo ATP luminescence, 72 h

| Structure (SMILES) | activity change, negative = cytotoxicity (at 26 µM (top of the series)) | further results |
| --- | --- | --- |
| C/C=C/c1ccc([C@H]2[C@@H](CO)N3C(=O)CN(S(=O)(=O)c4cccc(F)c4)C[C@@H]23)cc1 | 34.3% (inactive) |  |
| Cc1c(Cl)cnc(NC(=O)COC(=O)c2ccc3ncsc3c2)c1Cl | 13.6% (inactive) |  |
| Cc1ccc(/C=C2\SC(=S)N(CCCC(=O)NNC(=O)c3ccccc3O)C2=O)cc1 | -14.6% (inactive) |  |
| Cc1ccc(S(=O)(=O)N(C)C[C@@H]2Oc3ccc(NC(=O)CCCCCC(=O)Nc4ccccc4N)cc3CC(=O)N([C@@H](C)CO)C[C@@H]2C)cc1 |  | activity change, negative = cytotoxicity (at 21 µM (top of the series)): 3.82% (inactive) |
| CCCNC(=O)[C@@H]1[C@@H](CO)[C@@H]2Cn3c(ccc(-c4ccccc4)c3=O)[C@H]1N2C(=O)CC | 22.7% (inactive) |  |
| COc1ccc2oc(-c3ccccc3)cc(=O)c2c1 | -22.5% (inactive) |  |
| COc1ccc(/C=C2\SC(=O)N(CCCC(=O)Nc3ccc(C(=O)O)cc3)C2=O)cc1 | -14.1% (inactive) |  |
| CC(C)c1ccc(OCc2cccc(C(=O)N/N=C/c3cccnc3)c2)cc1 | -18.1% (inactive) |  |
| N#C[C@H]1N[C@H](CO)[C@H]1c1ccc(C#Cc2ccc(F)cc2)cc1 | -13% (inactive) |  |
| C[C@H](CO)N1C[C@H](C)[C@H](CN(C)Cc2ccc(C(F)(F)F)cc2)Oc2c(NS(=O)(=O)c3ccc(Cl)cc3)cccc2C1=O | -9.18% (inactive) |  |
| COc1ccc2oc(C(=O)NCCc3ccccc3)c(C)c2c1 | -22.1% (inactive) |  |
| O=C(CN1C(=O)c2ccccc2S1(=O)=O)c1ccc(F)cc1 | 6.26% (inactive) |  |
| CC(C)CC(NC(=O)c1cccs1)c1nnc(SCc2ccc(Cl)c(Cl)c2)n1C (centres undefined) | -6.67% (inactive) |  |
| Nc1nc(N)c2c(ccc3nccc32)[nH]1 | -30.1% (inactive) |  |
| O=C(Nc1nc(-c2ccc(F)c(F)c2)cs1)c1ccc(OCC2CCCO2)cc1 (centres undefined) | -9.94% (inactive) |  |
| CCOc1ccc(C(c2c(NC(=O)c3ccccc3)sc(C)c2C)N2CCN(CCO)CC2)cc1 (centres undefined) | -15.2% (inactive) |  |
| Cc1ccc(C(=O)CN2C(=O)c3ccccc3S2(=O)=O)cc1 | -1.54% (inactive) |  |
| COc1cccc(Sc2ccccc2/C=N/NC(N)=O)c1 | -10.9% (inactive) |  |
| COc1ccc(C=NNc2nc3ccccc3s2)cc1 | -21.8% (inactive) |  |
| COC(=O)C[C@@H]1CC[C@@H]2[C@H](COc3ccc(NC(=O)c4cccc(Cl)c4)cc3C(=O)N2C)O1 |  | activity change, negative = cytotoxicity (at 23.5 µM (top of the series)): -19.6% (inactive) |
| COCc1cc(C)nc2sc(C(=O)NCCO)c(-n3cccc3)c12 | 12.7% (inactive) |  |
| COc1ccc(NS(=O)(=O)c2cc(NC(=O)CNC(=O)c3cccc(OC)c3)ccc2C)cc1 | -20.6% (inactive) |  |
| CC(=O)N1CCCC(c2cc(C(=O)Nc3ccccc3)no2)C1 (centres undefined) | -1.97% (inactive) |  |
| CC1=NC(=O)C(N=Nc2cccc(C(=O)O)c2)N1c1ccccc1 (centres undefined) | -10% (inactive) |  |
| C[C@H]1CN([C@@H](C)CO)C(=O)Cc2cc(NC(=O)CCCCCC(=O)Nc3ccccc3N)ccc2O[C@H]1CN(C)Cc1ccc(C(F)(F)F)cc1 | -19% (inactive) |  |
| C[C@@H]1CN([C@@H](C)CO)C(=O)Cc2cc(NC(=O)Cn3cnnn3)ccc2O[C@@H]1CN(C)Cc1ccc(Oc2ccccc2)cc1 | 14.3% (inactive) |  |
| Cc1ccc(N2C(=O)c3cccc4c(N)ccc(c34)C2=O)c2cccnc12 | -19.1% (inactive) |  |

| Structure (SMILES) | activity change, negative = cytotoxicity (at 26 µM (top of the series)) | further results |
| --- | --- | --- |
| Nc1ccn([C@@H]2O[C@H](CO)[C@@H](O)C2O)c(=O)n1 (some centres undefined) | -12.5% (inactive) |  |
| COC(=O)c1c(C)[nH]c(/C=N/Nc2ccccc2)c1C | -4.63% (inactive) |  |
| COc1cc(-c2coc3c(C(=O)NCc4ccc(C(F)(F)F)cc4)cccc23)ccc1O | -23% (inactive) |  |
| COc1ccc(CCCNC(=O)C2Cc3c(-c4ccc5c(c4)OCO5)ccnc3O2)cc1 (centres undefined) | -7% (inactive) |  |
| COc1ccc(C2c3cc4c(cc3OC(NNC(N)=O)C2C)OCO4)cc1 (centres undefined) | -16.2% (inactive) |  |
| C[C@H]1CN([C@@H](C)CO)C(=O)c2cc(NS(=O)(=O)c3ccc(Cl)cc3)ccc2O[C@H]1CN(C)Cc1ccc(C(=O)Nc2ccccc2N)cc1 | -0.354% (inactive) |  |
| COC(=O)C[C@@H]1CC[C@H]2[C@H](COc3ccc(NC(=O)Nc4cc(C)cc(C)c4)cc3C(=O)N2C)O1 | -2.27% (inactive) |  |
| N#C[C@H]1[C@H](c2ccc(C#Cc3ccccc3F)cc2)[C@@H](CO)N1C(=O)C1CCOCC1 | -4.64% (inactive) |  |
| O=C(CCCN1C(=O)/C(=C/c2ccccc2Cl)SC1=S)NNC(=O)c1ccc(Cl)cc1 | 24.3% (inactive) |  |
| Cc1ccc2c(c1)C(=O)N1[C@H]3c4cc(Br)ccc4OC[C@@H]3[C@H](c3ccccc3)[C@]1(C)C(=O)N2 | -13.8% (inactive) |  |
| C[C@@H]1CN([C@@H](C)CO)C(=O)c2cccc(NC(=O)CCCCCC(=O)Nc3ccccc3N)c2O[C@@H]1CN(C)Cc1ccc(Oc2ccccc2)cc1 | -1.35% (inactive) |  |
| Nc1ccc(-c2cc3ccccc3c(=O)o2)cc1 | -6.69% (inactive) |  |
| CCCNC(=O)N1[C@H](C#N)[C@H](c2ccc(C#Cc3ccc(F)cc3)cc2)[C@H]1CO | 14.3% (inactive) |  |
| C[C@H]1CN([C@@H](C)CO)C(=O)Cc2cc(NC(=O)CCCCCC(=O)Nc3ccccc3N)ccc2O[C@H]1CN(C)Cc1ccc(Cl)c(Cl)c1 |  | activity change, negative = cytotoxicity (at 23.5 µM (top of the series)): -33.8% (inactive) |
| C[C@@H]1CN([C@H](C)CO)C(=O)c2cc(NS(=O)(=O)c3ccc(Cl)cc3)ccc2O[C@@H]1CN(C)Cc1ccc(Cl)c(Cl)c1 | -9.51% (inactive) |  |
| C[C@H](CO)N1C[C@H](C)[C@H](CN(C)Cc2ccc(C(=O)Nc3ccccc3N)cc2)Oc2ccc(N(C)C)cc2C1=O | -25.7% (inactive) |  |
| CN(C)c1ccc(N=Nc2ccccc2Br)cc1 | -16.8% (inactive) |  |
| CCOc1ccc2nc(NC3=NC(c4ccc(OC)cc4)CC(=O)N3)nc(C)c2c1 (centres undefined) | -23.2% (inactive) |  |
| O=C(CNC(c1ccccc1)c1ccccc1)Nc1ccccc1-c1ccccc1 | -23.7% (inactive) |  |
| COc1cc(/C=N/NS(=O)(=O)c2ccc3ccccc3c2)ccc1OCc1ccc(C(=O)O)cc1 | -17.5% (inactive) |  |
| O=C(/C=C/c1cc(Br)ccc1O)c1ccco1 | -23.9% (inactive) |  |
| Cc1[nH]c(=S)sc1Cc1ccc(Cl)c(Cl)c1 | 20.1% (inactive) |  |
| COc1ccc(N=C(NN)c2ccc3ccccc3n2)cc1 | -17.4% (inactive) |  |
| O=C(NCc1cccnc1)C1Cc2c(-c3ccc(Cl)cc3)ccnc2O1 (centres undefined) | -17.5% (inactive) |  |
| Cc1c(CC(=O)NCCCC(=O)O)c(=O)oc2cc3c(cc12)CCC(C)(C)O3 | -63.2% (inactive) |  |
| CN(C)c1ccc(/C=N/Nc2nc3ccccc3o2)cc1 | -21.5% (inactive) |  |
| COCC(=O)Nc1ccc2c(c1)[C@@H]1C[C@@H](CC(=O)NCc3ccc(-c4ccccc4)cc3)O[C@@H](CO)[C@@H]1O2 | 13.6% (inactive) |  |
